EP1311486B1, “USES OF THALIPORPHINE OR ITS DERIVATIVES IN TREATMENT OF CARDIAC DISEASES AND PREPARATION OF SAME” (Lotus Pharmaceutical Co., Ltd., priority 2000, dated 2002)
Marks after values point to notes of the source that are not given here.

What was measured:
atria or ventricles = assay: Action potential duration in atria or ventricles; settings: 3-10µM, data not shown
Description: (§1) Moreover, 3-10µM THP prolongs the action potential duration in the atria or ventricles of both rats and guinea pigs (data not shown).

[1] = tested on: delayed outward potassium current (IK); assay: Inhibition of delayed outward potassium current; settings: guinea pigs
Description: as §1

[2] = Superoxide anion scavenging, xanthine/xanthine oxidase system; type: biochemical
[3] = DPPH radical scavenging, absorbance at 517 nm; type: biochemical; settings: DPPH 100µM, 25°C, 30 minutes
Description: After incubation of various concentrations of THP with 1,1-diphenyl-2-picrylhydrazyl (DPPH, 100µM) at room temperature (25°C) for 30 minutes, decrease in the absorbance for DPPH at 517 nm was measured to determine the dose-response curve of THP in scavenging DPPH radicals.
In the 1,1-diphenyl-2-picrylhydrazyl (DPPH) assay system, the free radical scavenging activity of THP is expressed as IC0.200. The decrease in optical absorbance at 517 nm after addition of THP is monitored following the trapping of the unpaired electron of DPPH. Referring to FIG.4, THP scavenges DPPH in a concentration-dependent manner with IC0.200 of 12.4µmol/L.

[4] = tested on: isolated guinea pig hearts; assay: Reperfusion-induced ventricular fibrillation in isolated guinea pig hearts subjected to global ischemia
Description: The isolated guinea pig hearts were ligated by global ischemia. Reperfusion was achieved by releasing the tension applyied to the ligature. Various concentrations of THP were then administered and the ventricular fibrillarion (VF) was recorded. Table 1 Effects of THP on reperfusion-induced ventricular fibrillation in isolated guinea pig hearts subjected to global ischemia
Similarly, 10µM THP can be effective in inhibiting the cardiac arrhythmia induced in the isolated guinea pig heart subjected to global ischemia followed by reperfusion (Table 1). The structure of coronary arteries between rat and guinea pig are not alike, THP, however, can be effective in inhibiting the arrhythmia induced in the isolated heart subjected to ischemia-reperfusion in both animals.

[5] = tested on: guinea pig right ventricular strips; assay: Ouabain-induced arrhythmia in electrically driven right ventricular strips; settings: 10-20µM after 0.6-0.8µM ouabain
Description: The arrhythmia was then induced 5-10 minutes after. 10-20µM THP or its derivatives were administered to reverse the ouabain-induced arrhythmia. 6-7.
Referring to FIGs. […] The arrhythmia is then induced 5-10 minutes after.

[6] = tested on: rats subjected to myocardial ischemia; assay: Blood pressure and heart rate in rats subjected to 30 minutes coronary ligation; type: in vivo; settings: intravenous, 3.5x10^-6 or 3.5x10^-5 g/kg
Description: (§2) Myocardial ischemia was performed by a temporary tightening of the silk ligature around the left main coronary artery. Reperfusion was achieved by releasing the tension applied to the ligature (operated groups). Sham operated animals underwent all surgical procedures, apart from the fact that the silk, passing around the left coronary artery, was not tied (sham groups). Animals were infused with a bolus of THP (3.5x10^-7, 3.5x10^-6, 3.5x10^-5 g/kg), L-NAME (N^∞-nitro-L-arginine methyl ester; 1x10^-3 g/kg) or vehicle (dimethyl sulfoxide/ NaCl 0.9%, 1:10^3; v/v) from a jugular vein 15 minutes before coronary occlusion. The coronary artery was occluded for 30 minutes or 5 minutes followed by 30 minutes reperfusion and with the animals then divided randomly in the following groups: (1) sham + vehicle; (2) sham + THP (3.5x10^-5g/kg); (3) operated + vehicle; (4) operated + THP (3.5x10^-7 g/kg); (5) operated + THP (3.5x10^-6 g/kg); (6) operated + THP (3.5x10^-5 g/kg); (7) operated + L-NAME (1x10^-3 g/kg) + THP (3.5x10^-5 g/kg). Before and during the ischemia or reperfusion period, heart rate (HR), blood pressure (BP) and ECG changes were recorded. Ventricular ectopic activity was evaluated according to the diagnostic criteria advocated in the Lambeth Convention. The incidence and duration of ventricular tachyarrhythmias, including ventricular tachycardia (VT) and ventricular fibrillation (VF), in surviving animals was determined. The Mann-Whitney rank-sum test was used to analyze the differences in the duration of VT and VF between vehicle and drug treated groups. The BP and HR changes between vehicle and drug treated rats in the arrhythmia study were analyzed by ANOVA (analysis of variance) followed by Bonferroni's test. The difference in the percentage incidence of VT, VF and mortality rate was analyzed with a Chi-square test. Table 2 Effect of THP on ischemia-induced arrhythmias in the in vivo anesthetized rat
No significant difference can be seen among vehicle and drug groups (3.5x10^-6 or 3.5x10^-5 g/kg, THP).

plasma LDH = assay: Plasma LDH release at the end of ischemia or ischemia-reperfusion; type: in vivo, rats; settings: for LDH (U/L) release, Ischemic / LDH (U/L) release, Reperfused: Operated
Description: as §2
Cellular damage was evaluated by measuring the plasma LDH. Arterial blood samples were drawn from the carotid catheter at the end of ischemia or ischemia-reperfusion, collected in heparinized tubes. The blood was kept at 4°C until it was centrifuged at 2000 xg for 15 minutes. The plasma was recovered and aliquots were used for determination of LDH activity with a commercial kit from Sigma. The deproteinized plasma samples were frozen and kept until analysis. NO was measured by the NO/ozone chemiluminescence technique described in Yanu F. et al., (1997) Clin. Chem. 43:657-662. The difference in plasma NO and LDH were analyzed statistically using unpaired Student's t-test. Table 5 Effects of THP on LDH (U/L) release
The biochemical indicator of cellular damage (LDH release) is determined in ischemia and the ischemia-reperfusion period. Low LDH activity can be seen in the control group (123.6±20.6 U/L) before occlusion. After the occlusion or occlusion-reperfusion, a large increase of the enzyme is found in the plasma of rats given operated-vehicle (500.5±81.4 U/L and 273.7±29.2 U/L, respectively). However, administration of THP attenuates LDH release with a dose-dependent manner during ischemia or ischemia-reperfusion (Table 5).

inward sodium current = settings: Su MJ, et al., Eur. J. Pharmacol., 1994; cited from earlier work

COc1cc2c(cc1OC)-c1c(O)c(OC)cc3c1C(C2)N(C)CC3 (single isomer, unassigned; (+)) [THP, (+)-Thaliporphine]
action potential duration (atria or ventricles; atria or ventricles of guinea pigs): prolongs
action potential duration (atria or ventricles; atria or ventricles of rats): prolongs
delayed outward potassium current (IK) [1]: markedly inhibit
EC50 [2]: 12.6 µM
IC0.200, scavenging of DPPH [3]: 12.4 µmol/L
%VF ([4]; 3 µM): 25* %
VF (number of hearts) ([4]; 3 µM, N 8): 2
%VF ([4]; 10 µM): 0* %
VF (number of hearts) ([4]; 10 µM, N 6): 0
reversal of ouabain-induced arrhythmia [5]: effective in reversing the arrhythmia
diastolic blood pressure [6]: does not modify
heart rate (HR) [6]: does not modify
systolic blood pressure [6]: does not modify
LDH (U/L) release, Ischemic (plasma LDH; THP 3.5x10^-5 g/kg): 132.2±33.2 U/L
LDH (U/L) release, Reperfused (plasma LDH; THP 3.5x10^-5 g/kg): 143.8±11.7 U/L
LDH (U/L) release, Ischemic (plasma LDH; THP 3.5x10^-6 g/kg): 171.7±56.9 U/L
LDH (U/L) release, Reperfused (plasma LDH; THP 3.5x10^-6 g/kg): 219.6±31.0 U/L
LDH (U/L) release, Ischemic (plasma LDH; THP 3.5x10^-7 g/kg): 349.5±55.0 U/L
LDH (U/L) release, Reperfused (plasma LDH; THP 3.5x10^-7 g/kg): 202.2±30.4 U/L
LDH (U/L) release, Non-ischemic (plasma LDH; Sham-operated, THP 3.5x10^-5 g/kg): 92.6±7.5 U/L
inward sodium current (inward sodium current): inhibit
